In patent US20200071326A1, “TAM KINASE INHIBITORS” (Syros Pharmaceuticals, Inc., priority 2017, published 2020) one finds Ki data, which are given here for 26 molecules.

Counter-ions that a name gives are not always drawn.

Test [1] deals with T1, TYRO3 (Homo sapiens, UniProt Q06418).
T1 sequence (Q06418 41-890): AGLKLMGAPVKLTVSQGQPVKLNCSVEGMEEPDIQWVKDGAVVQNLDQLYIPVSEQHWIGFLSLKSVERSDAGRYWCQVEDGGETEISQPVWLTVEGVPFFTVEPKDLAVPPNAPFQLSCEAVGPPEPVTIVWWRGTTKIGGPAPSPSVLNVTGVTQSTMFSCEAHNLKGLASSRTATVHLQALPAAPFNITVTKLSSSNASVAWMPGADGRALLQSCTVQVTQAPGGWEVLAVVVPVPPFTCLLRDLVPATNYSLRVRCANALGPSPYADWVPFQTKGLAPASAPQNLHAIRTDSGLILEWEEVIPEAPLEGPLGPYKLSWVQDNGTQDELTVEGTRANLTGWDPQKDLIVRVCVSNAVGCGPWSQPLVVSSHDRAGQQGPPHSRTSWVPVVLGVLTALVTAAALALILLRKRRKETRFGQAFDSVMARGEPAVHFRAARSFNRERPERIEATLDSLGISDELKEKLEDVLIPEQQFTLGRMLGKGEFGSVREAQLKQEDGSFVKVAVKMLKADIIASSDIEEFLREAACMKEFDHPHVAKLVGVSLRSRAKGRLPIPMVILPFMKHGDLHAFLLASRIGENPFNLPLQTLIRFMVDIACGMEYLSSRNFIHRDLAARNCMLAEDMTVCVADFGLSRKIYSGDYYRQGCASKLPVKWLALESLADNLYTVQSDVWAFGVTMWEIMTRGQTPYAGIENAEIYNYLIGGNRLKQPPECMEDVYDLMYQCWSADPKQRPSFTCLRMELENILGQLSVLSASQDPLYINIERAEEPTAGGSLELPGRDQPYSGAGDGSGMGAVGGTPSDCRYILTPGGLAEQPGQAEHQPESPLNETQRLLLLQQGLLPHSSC
As to the kind of experiment: IMAP fluorescence polarization kinase assay, TYRO3. The test is classed as biochemical. To be noted: ATP 54.0 μM, enzyme 2.5 nM, 60 minutes, read-out: TYRO3 inhibitory constant (Ki). As to the method: (§1) Activities of compounds against each of TYRO3, AXL, and MERTK as well as against FLT3, were determined using an immobilized metal ion affinity-based fluorescence polarization (“IMAP”) assay. A fluorescently-labeled substrate peptide was phosphorylated in the kinase reaction, after which a binding solution containing large trivalent metal-based nanoparticles was added and the phosphorylated substrate binds to these beads. This reduces the rotational speed of the substrate which is then detected using fluorescence polarization as a read-out.
(§2) The substrates used for each enzyme are as follows: AXL: 5F1-KKKKEEIYFFFG-NH2(SEQ ID NO:1); FLT3: 5F1-KKKKEEIYFFF-NH2 (SEQ ID NO:2); MERTK: 5F1-EFPIYDFLPAKKK-NH2 (SEQ ID NO:3); and TYRO3: 5F1-EFPIYDFLPAKKK-NH2 (SEQ ID NO:4).
(§3) This assay was performed in a 384-well, polystyrene microplate in a final volume of 8 μl. Substrate (final concentration=400 nM), ATP (final concentrations=24.7μM for AXL; 2.74 μM for FLT3; 2.69 μM for MERTK; and 54.0 μM for TYRO3), compounds and enzyme (final concentrations=2.5 nM for AXL, FLT3 and TYRO3; 1.5 nM for MERTK) were pipetted in this order into the appropriate reaction buffer (AXL: 50 mM HEPES, pH 8.0, 1 mM DTT, 10 mM MgCl2, 0.01% BRU35, 0.01% Triton X-100; FLT3: 50 mM HEPES, pH 8.0, 1 mM DTT, 10 mM MgCl2, 0.01% Triton X-100, 0.01% NP40; MERTK/TYRO3: 50 mM HEPES, pH 8.0, 1 mM DTT, 10 mM MgCl2, 0.01% Triton X-100) and incubated at room temperature for varying times (AXL, FLT3 and MERTK: 240 minutes; TYRO3: 60 minutes). IMAP binding solution was then dispensed, the plate incubated for 60 minutes at room temperature and the fluorescence polarization measured. Data were analyzed using XLfit.
Background: Polarisation of emitted light reports the rotation of a fluorescent probe.

In test [2] the target is T2, AXL (Homo sapiens, UniProt P30530).
T2 sequence (P30530 26-894): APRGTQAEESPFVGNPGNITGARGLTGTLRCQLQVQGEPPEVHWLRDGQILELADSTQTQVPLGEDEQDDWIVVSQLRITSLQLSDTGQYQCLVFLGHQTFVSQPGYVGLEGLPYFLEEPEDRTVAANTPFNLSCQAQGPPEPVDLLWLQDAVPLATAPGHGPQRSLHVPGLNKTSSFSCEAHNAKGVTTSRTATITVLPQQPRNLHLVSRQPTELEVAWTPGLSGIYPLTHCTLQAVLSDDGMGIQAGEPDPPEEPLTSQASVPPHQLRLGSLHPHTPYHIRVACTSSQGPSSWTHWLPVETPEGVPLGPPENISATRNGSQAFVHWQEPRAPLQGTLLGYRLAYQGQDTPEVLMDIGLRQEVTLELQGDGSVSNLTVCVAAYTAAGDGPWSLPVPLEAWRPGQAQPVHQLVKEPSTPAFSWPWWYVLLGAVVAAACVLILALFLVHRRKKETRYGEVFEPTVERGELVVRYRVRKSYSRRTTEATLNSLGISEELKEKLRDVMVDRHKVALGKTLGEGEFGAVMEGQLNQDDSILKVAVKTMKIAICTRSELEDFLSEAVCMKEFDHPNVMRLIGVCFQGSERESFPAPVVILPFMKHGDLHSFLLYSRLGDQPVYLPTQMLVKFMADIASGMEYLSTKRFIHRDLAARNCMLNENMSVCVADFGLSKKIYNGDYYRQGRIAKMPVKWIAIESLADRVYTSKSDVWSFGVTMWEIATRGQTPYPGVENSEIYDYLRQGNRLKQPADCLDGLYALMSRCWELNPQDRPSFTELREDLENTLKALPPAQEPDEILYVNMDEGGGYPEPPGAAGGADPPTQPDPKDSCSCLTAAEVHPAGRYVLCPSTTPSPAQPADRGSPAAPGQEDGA
As to the kind of experiment: IMAP fluorescence polarization kinase assay, AXL. The class given is biochemical. To be noted: ATP 24.7 μM, enzyme 2.5 nM, 240 minutes, read-out: AXL inhibitory constant (Ki). How it is done: as §1, §2, §3

As a reminder, the Ki is the dissociation constant of the complex between target and ligand, obtained from inhibition or displacement. As for `CC(O)c1cc2c(N[C@H]3CC[C@H](O)CC3)c(-c3ccc(CN4CCOCC4)cn3)cnc2[nH]1` (stereo partly shown) [Compound 143], the values for the inhibition constant Ki in test [1] and in test [2] were less than 100 nM and 1000 to 10000 nM, respectively.

Regarding `CCc1cc2c(N[C@H]3CC[C@H](N)CC3)c(C(=O)NCc3ccc(-n4ccnc4)cc3)cnc2[nH]1` [Compound 119, N-(4-(1H-imidazol-1-yl)benzyl)-4-(((1r,4r)-4-aminocyclohexyl)amino)-2-ethyl-1H-pyrrolo[2,3-b]pyridine-5-carboxamide], the results for the inhibition constant (Ki) in test [1] and in test [2] were less than 100 nM and 100 to 1000 nM, respectively.

With `CCc1cc2c(N[C@H]3CC[C@H](O)CC3)c(-c3ccc(CN4CCOCC4)cn3)cnc2[nH]1` [Compound 144], the Ki in test [1] was less than 100 nM; in test [2], 100 to 1000 nM.

As for `CCCC(OC)c1cc2c(N[C@H]3CC[C@H](N)CC3)c(C(=O)Nc3ccc(F)cc3)cnc2[nH]1` (stereo partly shown) [Compound 153], the Ki was less than 100 nM in test [1] and greater than 10000 nM in test [2].

For `CCCc1cc2c(N[C@H]3CC[C@H](O)CC3)c(-c3ccc(CNCC45C[C@H]6C[C@@H](C4)C[C@@H](C5)C6)cn3)cnc2[nH]1` [Compound 109], the inhibition constant Ki in test [1] is less than 100 nM; in test [2] it was 100 to 1000 nM.

With `CCCc1cc2c(N[C@H]3CC[C@H](O)CC3)c(C(=O)NCc3ccc(-n4ccnc4)cc3)cnc2[nH]1` [Compound 102], the inhibition constant (Ki) was less than 100 nM in test [1] and 100 to 1000 nM in test [2].

Consider `CCc1cc2c(N[C@H]3CC[C@H](N)CC3)c(C(=O)NC3CCN(c4ncccn4)CC3)cnc2[nH]1` [Compound 132], for which the inhibitory constant (Ki) in test [1] was less than 100 nM; in test [2], 100 to 1000 nM.

Regarding `CCCC(O)c1cc2c(N[C@H]3CC[C@H](N)CC3)c(C(=O)Nc3ccc(F)cc3)cnc2[nH]1` (stereo partly shown) [Compound 154], the Ki was 100 to 1000 nM in test [1] and greater than 10000 nM in test [2].

Consider `CCCc1cc2c(N[C@H]3CC[C@H](O)CC3)c(-c3ccc(CN4CCCC4)cn3)cnc2[nH]1` [Compound 125], for which the Ki is less than 100 nM in test [1] and 100 to 1000 nM in test [2].

Consider `CCC[C@@H](C)c1cc2c(N[C@H]3CC[C@H](N)CC3)c(C(=O)Nc3ccc(F)cc3)cnc2[nH]1` [Compound 150], for which the inhibitory constant (Ki) was less than 100 nM in test [1] and 1000 to 10000 nM in test [2].

Take `CCC(CC)c1cc2c(N[C@H]3CC[C@H](N)CC3)c(C(=O)Nc3ccc(F)cc3)cnc2[nH]1` [Compound 147]: the Ki in test [1] is less than 100 nM; in test [2], 1000 to 10000 nM.

On to `CCCc1cc2c(N[C@H]3CC[C@H](N)CC3)c(C(=O)Nc3ccc(F)cc3)cnc2[nH]1` [Compound 100, 4-(((1r,4r)-4-aminocyclohexyl)amino)-N-(4-fluorophenyl)-2-propyl-1H-pyrrolo [2,3-b]pyridine-5-carboxamide hydrochloride], for which the Ki in test [1] is less than 100 nM; in test [2], 1000 to 10000 nM.

Take `CCCc1cc2c(N[C@H]3CC[C@H](O)CC3)c(-c3ccc(CN4CCOCC4)cn3)cnc2[nH]1` [Compound 105]: the Ki in test [1] was less than 100 nM; in test [2] it was 100 to 1000 nM.

As to `COCC(C)c1cc2c(N[C@H]3CC[C@H](N)CC3)c(C(=O)Nc3ccc(F)cc3)cnc2[nH]1` (stereo partly shown) [Compound 155], the Ki in test [1] was less than 100 nM; in test [2], greater than 10000 nM.

As for `CCCc1cc2c(N[C@H]3CC[C@H](N)CC3)c(C(=O)OC)cnc2[nH]1` [Compound 140], the Ki was less than 100 nM in test [1] and 1000 to 10000 nM in test [2].

On to `N[C@H]1CC[C@H](Nc2c(C(=O)Nc3ccc(F)cc3)cnc3[nH]c(C(F)(F)F)cc23)CC1` [Compound 135, 4-(((1r,4r)-4-aminocyclohexyl)amino)-N-(4-fluorophenyl)-2-(trifluoromethyl)-1H-pyrrolo[2,3-b]pyridine-5-carboxamide hydrochloride], for which the inhibitory constant (Ki) in test [1] was less than 100 nM; in test [2] it was 100 to 1000 nM.

Turning to `CCC(C)c1cc2c(N[C@H]3CC[C@H](O)CC3)c(C(=O)NC3CCN(C4=NCCCN4)CC3)cnc2[nH]1` (stereo partly shown) [Compound 158], the inhibition constant (Ki) was less than 100 nM in test [1] and 1000 to 10000 nM in test [2].

Consider `CCC(OC)c1cc2c(N[C@H]3CC[C@H](N)CC3)c(C(=O)Nc3ccc(F)cc3)cnc2[nH]1` (stereo partly shown) [Compound 146], for which the inhibition constant Ki was less than 100 nM in test [1] and greater than 10000 nM in test [2].

For the molecule `CCCc1cc2c(N[C@H]3CC[C@H](O)CC3)c(-c3cnn(CCN(C)C)c3)cnc2[nH]1` [Compound 107], the inhibitory constant (Ki) lay in the range of 100 to 1000 nM in test [1] and 1000 to 10000 nM in test [2].

Turning to `CCCc1cc2c(N[C@H]3CC[C@H](O)CC3)c(C(=O)Nc3ccc(F)cc3)cnc2[nH]1` [Compound 101], the inhibitory constant (Ki) is 100 to 1000 nM in test [1] and greater than 10000 nM in test [2].

`CCCc1cc2c(N[C@H]3CC[C@H](N)CC3)c(-c3cc(NC)ncn3)cnc2[nH]1` [Compound 111, (1r,4r)-N^1-(5-(6-(methylamino)pyrimidin-4-yl)-2-propyl-1H-pyrrolo[2,3-b]pyridine-4-yl)cyclohexane-1,4-diamine hydrochloride]: the results for the inhibition constant Ki in test [1] and in test [2] were less than 100 nM and 100 to 1000 nM, respectively.

As to `CCCc1cc2c(N[C@H]3CC[C@H](N)CC3)c(-c3ccc(C)nn3)cnc2[nH]1` [Compound 127], the Ki in test [1] is less than 100 nM; in test [2], 100 to 1000 nM.

With `CCCc1cc2c(N[C@H]3CC[C@H](N)CC3)c(C(=O)NC3CCOCC3)cnc2[nH]1` [Compound 124], the results for the inhibition constant Ki in test [1] and in test [2] were less than 100 nM and 100 to 1000 nM, respectively.

`CCCc1cc2c(N[C@H]3CC[C@H](O)CC3)c(-c3ccc(CN4CCOCC4)cc3)cnc2[nH]1` [Compound 106, (1r,4r)-4-((5-(4-(morpholinomethyl)phenyl)-2-propyl-1H-pyrrolo[2,3-b]pyridin-4-yl)amino)cyclohexanol hydrochloride]: the values for the inhibition constant Ki in test [1] and in test [2] were 100 to 1000 nM and greater than 10000 nM, respectively.

With `CC(O)c1cc2c(N[C@H]3CC[C@H](N)CC3)c(C(=O)Nc3ccc(F)cc3)cnc2[nH]1` (stereo partly shown) [Compound 148], the Ki in test [1] was 100 to 1000 nM; in test [2], greater than 10000 nM.

For the molecule `CC(C)c1cc2c(N[C@H]3CC[C@H](N)CC3)c(C(=O)NCc3ccc(-n4ccnc4)cc3)cnc2[nH]1` [Compound 129], the results for the inhibition constant Ki in test [1] and in test [2] were less than 100 nM and 100 to 1000 nM, respectively.
